Data published in US20240124520A1, “N-ACYLATED HISTIDINE DIPEPTIDES AS ANTICANCER AGENTS” (THE BOARD OF TRUSTEES OF THE LELAND STANFORD JUNIOR …, priority 2019, published 2024).
Non-standard residues stand in square brackets, D forms with d. Residues, ends and D or L forms follow the SMILES beside them. *: point of attachment. Palmitoyl = CCCCCCCCCCCCCCCC(=O)*

Experiments:
Format in all cases: cell-based
[1] = test system: MDA-MB-468 triple-negative human breast cancer cells; assay: Cell Titer Blue in vitro cell viability assay, MDA-MB-468; details: 72 h, MDA-MB-468 (DMEM), 3 days at 37° C.
Method: (§1) FIG. 9: Dose Response curve for MBC0179 with MDA-MB-468 cells. Compound MBC0179 was incubated with MDA-MB-468 triple-negative human breast cancer cells at the indicated concentrations for 3 days at 37° C. prior to Cell Titer Blue fluorescence-based cell viability assay. Normalized cell viability data, expressed as a percentage, are averaged from three biological replicates and standard error represented by error bars for each averaged data point (empty squares). The compound concentrations are represented on log scale on the x-axis in μM units. Data were analyzed using free software called DrFit, as described in Nature Scientific Reports, Article number: 14701, (2015). […]
(§2) The Cell Titer Blue reagent (available from Promega, Inc.) is a buffered solution containing resazurin, a compound that is converted to resorufin, a detectable fluorescent product, by metabolically active cells. The fluorescence intensity of resorufin product therefore serves as a proportional measure of the number of viable cells, permitting changes in cell viability within cancer or other cell lines to be monitored in response to the addition of cytotoxic or cytostatic agents. […] Metastases to the lungs may be conveniently quantified by a well-established clonogenic assay. […]

[2] = test system: A549 human lung cancer cells; assay: Cell Titer Blue in vitro cell viability assay, A549; details: 72 h, A549 (DMEM), 3 days at 37° C.
Method: as §1, with “13:” for “9:”, “A549” for “MDA-MB-468”, “A549” for “MDA-MB-468 triple-negative”, “lung” for “breast”
as §2

[3] = test system: SK-N-SH human neuroblastoma cells; assay: Cell Titer Blue in vitro cell viability assay, SK-N-SH; details: 72 h, SK-N-SH (DMEM), 3 days at 37° C.
Method: as §1, with “15:” for “9:”, “SK—N—SH” for “MDA-MB-468”, “SK—N—SH” for “MDA-MB-468 triple-negative”, “neuroblastoma” for “breast cancer”
as §2

[4] = test system: 4T1 mouse triple-negative breast cancer cells; assay: Cell Titer Blue in vitro cell viability assay, 4T1; details: 72 h, 4T1 (RPMI), 3 days at 37° C.
Method: FIG. 16: Dose Response curve for MBC0179 with 4T1 cells. Compound MBC0179 was incubated with 4T1 mouse triple-negative breast cancer cells at the indicated concentrations for 3 days at 37° C. prior to Cell Titer Blue fluorescence-based cell viability assay. Normalized cell viability data, expressed as a percentage, are averaged from three biological replicates and standard error represented by error bars for each averaged data point (empty squares). The compound concentrations are represented on log scale on the x-axis in μM units. Data were analyzed using free software called DrFit, as described in Nature Scientific Reports, Article number: 14701, (2015). […]
as §2

[5] = test system: K-562 human chronic myelogenous leukemia cells; assay: Cell Titer Blue in vitro cell viability assay, K-562; details: 72 h, K562 (DMEM), in suspension, 3 days at 37° C.
Method: as §1, with “11:” for “9:”, “K-562” for “MDA-MB-468”, “K-562” for “MDA-MB-468 triple-negative”, “chronic myelogenous leukemia cells, a non-adherent cell line,” for “breast cancer cells”
as §2

CCCCCCCCCCCCCCCC(=O)N[C@H](Cc1c[nH]cn1)C(=O)N[C@@H](C(=O)OCC)C(C)C [Compound 5, N-[N-(1-oxohexadecyl)-D-histidyl]-D-valine ethyl ester] (Palmitoyl-[dH]-[dV]-OEt)
IC50 [1]: 15.7 µM | IC50 [2]: 10.5 µM | IC50 [3]: 35 µM | IC50 [4]: 25.5 µM | IC50 [5]: 6.11 µM
